Read-outs that look alike come from different tables or passages of the source.
Assays:
[1] = cited from earlier work
[2] = Uptake by prototype passive sampler at constant exposure concentration over time; conditions: polyethylene device
Description: In each experiment, the prototype device was tested fitted with both the polyethylene and the polysulphone membrane.
Accumulation of organic analytes by a passive sampling system fitted with a C18 Empore™ disk as receiving phase and either a […] pore size polysulphone membrane or a polyethylene membrane as a diffusion-limiting membrane material. Accumulation was measured following exposure of the system to an aqueous solution of analytes at constant concentration, stirring speed (140 rpm) and temperature (11° C.). Linear regressions of the accumulation factor, AF, (ml/device) on time were plotted and are given with the […] (R^2) in table 7. AF=mass of analytes in the tested compartment (ng/device)/mean concentration of the analyte in the aqueous phase during deployment (ng/ml).
The pattern of uptake in each case is linear with time over deployment periods ranging from several hours to 9 days. R^2 values in each case are above 0.9. Linear regressions plotted through the data points show the lag time between exposure of the device to an aqueous solution of each analyte and its uptake into the receiving phase of the passive sampling system. In effect this is a measurement of the response time of a particular prototype passive sampling system to a particular compound.

[3] = Cadmium uptake by passive sampler, effect of pH and of permselective membrane
Description: Further evidence for the permselective function of the membrane during diffusion is illustrated by studying the effect of pH on metal uptake by the passive sampler, in this case Cd. […] Cadmium was initially added to a carefully-controlled water system in the laboratory into which the sampler was placed. Samples of water were taken over a period of 10 days.
Further evidence of the interaction of metal with the permselective membrane is that uptake to a naked disk is much more rapid. The uptake rate constant (k) for Cd is 1.6×10^9 min^−1 for the naked disk and 0.21×10^9 min^−1 for the permselective membrane.

| Compound | Solubility in water ([1]; at 25° C.) [mgl^−1] | Solubility in water ([1]; temperature not given) [mgl^−1] | lag phase between exposure and uptake into the C18 receiving phase [2] | other results |
| --- | --- | --- | --- | --- |
| CN(C)C(=O)Nc1ccc(Cl)c(Cl)c1 [Diuron] | 42 |  |  |  |
| Clc1ccc(Cl)c(-c2cc(Cl)ccc2Cl)c1 [PCB 52] |  | 0.03 | only a small lag phase |  |
| [Cd] [Cadmium] |  |  |  | uptake rate constant (k) ([3]; naked disk): 1.6e+09 min⁻¹; uptake rate constant (k) ([3]; permselective membrane (Nafion-coated cellulose acetate)): 2.1e+08 min⁻¹ |
| c1ccc2c(c1)ccc1ccccc12 [Phenanthrene] |  |  | only a small lag phase |  |
| Clc1cc(Cl)c(-c2cc(Cl)c(Cl)cc2Cl)cc1Cl [PCB 153] |  | 0.00105 | a more significant lag phase |  |
| ClC1=C(Cl)[C@]2(Cl)[C@@H]3[C@@H]4C[C@@H]([C@H]5O[C@@H]45)[C@@H]3[C@@]1(Cl)C2(Cl)Cl [Dieldrin] | 0.186 |  | a more significant lag phase |  |

From US7059206B1 (priority 1999, dated 2006)
